What was measured:
[1] = TXA administered within 1 hour of injury; cited from earlier work
[2] = tested on: 3T3 mouse fibroblast cells; experiment: WST-8 (CCK-8) cell viability assay on dressing leachates; format: cell-based; conditions: 24-hour leachate
Excerpt: The manufacturer's (Sigma-Aldrich) protocol was followed while using CCK-8 kit which utilizes highly water-soluble tetrazolium salt. In the live cells, WST-8 [2-(2-methoxy-4-nitrophenyl)-3-(4-nitrophenyl)-5-(2,4-disulfophenyl)-2H-tetrazolium monosodium salt] is reduced by dehydrogenases to give formazan (an orange-colored product), which can be detected at 450 nm. This means that a noncytotoxic material should generate a higher level of formazan than a relatively cytotoxic material because of WST-8 reduction. To obtain the leachate, samples weighing 10 mg each were added to 10 ml to in the DMEM medium for 24 hours at 37° C. The leachate was later used to grow the cells.
Seeding of cells. A culture of the fibroblast cells was grown in a 75 cm2 T-flask with Dulbecco modified Eagle's medium (DMEM) with 4.5 g/L-glutamine, 4.5 g/L glucose, 1% penicillin-streptomycin and 10% fetal bovine serum (FBS) after thawing a cryopreserved vial of fibroblast cells.^11 The cells could proliferate in an incubator which provided a physiological condition for their growth (5% CO2, 37° C.) until the confluence reached around 80-90%. […] The formula below was used to calculate cell viability.^12
To ensure that the components of wound dressing—CarboSil®, SNAP, TXA, and propolis—are not cytotoxic to the mammalian cells, a 24-hour cytotoxicity study was conducted on mouse fibroblast cells.

Structure (SMILES) | reduction in deaths [1] [%] | cytotoxicity (relative cell viability) [2]
NC[C@H]1CC[C@H](C(=O)O)CC1 [TXA, tranexamic acid] | 32 | 
CC(=O)N[C@H](C(=O)O)C(C)(C)SN=O (racemic) [SNAP, S-nitroso-N-acetylpenicillamine] |  | non-cytotoxic

Reference: patent US12533439B2, “Antibacterial wound treatments with clot-promoting properties” (University of Georgia Research Foundation, Inc., priority 2019, dated 2026)
